Reference: patent US9434701B2, “Aminoquinoxaline derivatives for treatment of neurodegenerative diseases” (CENTRE NATIONAL DE LA RECHERCHE SCIENTIFIQUE (CNRS), priority 2011, dated 2016)
“Also recorded” adds a separate entry of the source.

What was measured:
[1] = test system: dopaminergic neurons (TH+) of rat embryo ventral midbrain culture; assay: neuritogenic activity: neurite outgrowth per cell / differentiation of TH+ neurons; assay type: cell-based
Protocol: Quinoxaline derivatives were tested on a dopaminergic neuron spontaneous degeneration model in culture according to the protocol described in the article by F. Schmidt et al. […] This model consists of culturing rat embryo ventral midbrain. This part of the brain in culture contains a proportion of dopaminergic neurons of 5% of the total neurons; the other neurons are mainly GABAergic. These cultures are also composed of glial cells, i.e., astrocytes, oligodendrocytes and microglia. These cultures are characterized by progressive neuron death. […] To assess the neuritogenic activity of compounds according to the invention, neurite outgrowth per cell was quantified using the Neurite Outgrowth software developed by Xplora Nova. At least 60 neurons per condition were photographed and studied.

[2] = test system: fetal dopaminergic neurons (TH+) in culture; assay: dopaminergic neuron spontaneous degeneration model, second protocol (Mourlevat et al.), TH+ neuron count after 10 days; assay type: cell-based; details: Rattus norvegicus, 240 h, effect at 100 μM, 10 days of culture, read-out: TH+ neurons in % of control ± Std. Err.
Protocol: This second protocol is described in the article by Mourlevat, P. P. Michel et al. Molecular Pharmacology 2003, 64:578-586 (“Prevention of Dopaminergic Neuronal Death by Cyclic AMP in Mixed Neuronal/Glial Mesencephalic Cultures Requires the Repression of Presumptive Astrocytes”). […] Compounds according to the invention were evaluated at 50 μM except compound 4bc which was assessed at 100 μM.

[3] = passage of the blood-brain barrier, per os study: brain extract by HPLC-MS/MS; assay type: in vivo, Rj Orl: SWISS mice; details: per os 150 mg/kg twice daily 4 days + last treatment day 5; euthanized 4 h to 6 h 40 after last treatment
Protocol: Male Rj Orl: SWISS, mice, approximately 5 weeks old and weighing between 20 and 24 g at arrival (R Janvier Breeding Center, France) were kept in the animal room at constant temperature (22±1° C.) and controlled humidity (55±20%), with a 12-hour light/dark cycle (8:00 a.m.-8:00 p.m.). During the acclimation and study period, the mice had free access to food and water. All the experiments were conducted in compliance with the conditions of decree 2001-464 of May 29, 2001 relative to animal experimentation.
The solution of compound 4bc at the concentration of 15.0 g/L to be administered was prepared in the following carrier: 0.5% Tween 80+99.5% carboxymethyl cellulose at 1%, in 0.9% NaCl in water.
Three groups were created: • mice who received the carrier orally at 10 mL/kg (Group V, n=4), • mice treated with compound 4bc orally at 150 mg/kg and at 10 mL/kg (Group T, n=6), • control mice who received no treatment (n=2). All the mice were treated or received the carrier twice daily for 4 days. On the 5th day, a last treatment was administered and the animals were euthanized between […]. after this last treatment according to the following plan: […]
Detection and quantification, based on peak area, were done by HPLC-MS/MS in MRM mode.

[4] = influence of time before euthanasia, per os route: brain extract and plasma concentration; assay type: in vivo, C57BL\6J mice
Protocol: This study was done on C57BL\6J (instead of RjOrl:SWISS) mice treated with compound 4bc by IP or per os.
Mice treated per os received a treatment of 150 mg/kg to 10 mL/kg of a solution of compound 4bc over 5 days comprising twice daily administrations for 4 days and a once daily administration the last day.

[5] = per os 150 mg/kg, approximately 1 h 30 min
[6] = per os 150 mg/kg, approximately 2 h
[7] = per os 150 mg/kg, approximately 2 h 25 min

With `Cc1nc2ccc(N)cc2nc1-c1ccccc1` [Compound 4bc] the “TH+ neuron differentiation / neuritogenic effect (in words, FIG. 1)” value ([1]; 100 nM, versus negative control) was “significant increase; also recorded: longer and more numerous neurite extensions”, the activity at 0.1 µM ([1]; Rattus norvegicus, Neuron, compound at 100 nM, read-out: Diff in % of control ± SEM) was 142% and the activity at 100 µM [2] was 139 ± 11%. The “detection in brain samples” value [3] was “undetectable”, the concentration at 1 h ([4]; C57BL\6J, mouse, brain extract, oral, per os 150 mg/kg over 5 days, approximately 1 h after last treatment) was 2200 ng/mL and the “crossing of the blood-brain barrier in vivo” value ([4]; oral administration) was “able to cross the mouse or rat blood-brain barrier”. The Brain extract concentration ([4]; per os 150 mg/kg over 5 days, approximately 1 h after last treatment) was 2.2 µg/mL, the Plasma concentration ([4]; per os 150 mg/kg, approximately 1 h) was 11600 ng/mL and the Brain extract concentration [4, 5] was 0.2 µg/mL. It also gave a Plasma concentration [4, 5] of 700 ng/mL, a Brain extract concentration [4, 6] of 0.1 µg/mL and a Plasma concentration [4, 6] of 40 ng/mL. For the same compound, the Brain extract concentration [4, 7] was 0.05 µg/mL and the Plasma concentration [4, 7] was 400 ng/mL.
